Experimental data reported in patent US10307383B2, “Cosmetic composition for preventing or ameliorating hypersensitive skin comprising cedrol or derivatives thereof, or pharmaceutically acceptable salts thereof” (University of Seoul Industry Cooperation Foundation, priority 2017, dated 2019).

Tests used:
Format in all cases: in vivo, Balb/c mouse
[1] = system: psoriasis induced mice (imiquimod); assay: Cumulative score of PASI for ear thickness, keratosis and skin flair (development phase); conditions: 100 mg/kg oral, 7 days, IMQ applied
Protocol: (§1) To investigate the delayed effect of cedrol, cedryl acetate, and alpha-cedrene on the development of psoriasis, total 5 groups of mice were prepared (8 mice/group). First, the hair of the entire back of the 8-week-old male Balb/c mouse whose immune system was weakened was removed by using a hair clipper (Kimlaube Hair pen 325,327, Rikei, Korea). In the middle of the shaved back of the mouse, 2 mg of imiquimod (3M Health Care Limited, England) was applied in the area of 2 cm×1.5 cm and also 1,125 mg of imiquimod was applied on the right ear of the mouse every day once a day to induce psoriasis.
The mice prepared above were divided into the distilled water treated group (IMQ), the cedrol treated group (C), the cedryl acetate treated group (CA), and the alpha-cedrene treated group (CE). At this time, the mice were orally treated with distilled water at the concentration of 200 μl/mouse and cedrol or its derivatives at the concentration of 200 μl/mouse (100 mg/kg). The day when distilled water or the compound administration started was recorded as day 0 and the administration was performed once a day for a week, during which photo-recording was performed every day (FIGS. 2A˜2D). In the meantime, instead of applying imiquimod, 40 mg of vaseline was applied on the back of the control group (CONT) and 22.5 mg of vaseline was applied on the right ear of the control group. […]

[2] = Weight changes in the psoriasis induced mice (oral administration during imiquimod application); conditions: 100 mg/kg oral once a day during application of IMQ; increase
Protocol: as §1
The mice prepared above were divided into the distilled water treated group (IMQ), the cedrol treated group (C), the cedryl acetate treated group (CA), and the alpha-cedrene treated group (CE). […] The day when distilled water or the compound administration started was recorded as day 0 and the administration was performed once a day for a week, during which photo-recording was performed every day (FIGS. 2A˜2D). […]
To compare the weight changes in the psoriasis induced mice according to the oral administration of cedrol, cedryl acetate, and alpha-cedrene of Example <2-1>, the weight of each mouse was measured at the same time every day for a week.

[3] = system: psoriasis induced mice (imiquimod); assay: Cumulative score of PASI for ear thickness, keratosis and skin flair (recovery phase); conditions: 100 mg/kg oral after termination of imiquimod
Protocol: Imiquimod was applied to the psoriasis induced mice which had developed psoriasis for a week in Example <2-1>. The application was stopped 8 days after the application began. The groups CON and IMQ were treated with distilled water, the group C was treated with cedrol, the group CA was treated with cedryl acetate, the group CE was treated with alpha-cedrene alone at the concentration of 100 mg/kg in 200 μl, every day via oral-administration. Day 8 was the day the imiquimod application was stopped, since then the compounds were administered for 1 week once a day, during which photo-recording was performed (FIGS. 13A˜13D).
The psoriasis area severity index obtained in Examples <3-2> and <3-4> was accumulated to compare the psoriasis area severity index for ear thickness, keratosis and skin flair of the mouse groups respectively treated with cedrol, cedryl acetate, and alpha-cedrene via oral-administration.

SMILES | cumulative PASI (ear thickness, keratosis, skin flair) reduction effect, in words [1] | weight change for 7 days [2] [g] | cumulative PASI (ear thickness, keratosis, skin flair) recovery effect, in words [3]
CC1=CC[C@@]23C[C@@H]1C(C)(C)[C@@H]2CC[C@H]3C [alpha-cedrene, Alpha-cedrene] | strongest reduction effect at a similar level | – | –
C[C@@H]1CC[C@H]2C(C)(C)[C@H]3C[C@@]12CC[C@@]3(C)O [cedrol, Cedrol] | – | 0.025 | strongest recovery effect
CC(=O)O[C@]1(C)CC[C@@]23C[C@@H]1C(C)(C)[C@@H]2CC[C@H]3C [cedryl acetate, Cedryl acetate] | strongest reduction effect at a similar level | – | –
